Measurements: patent publication US12569534B2, “Therapeutic nanoparticles by coacervate complexation and their use for treating bacteria” (priority 2018, dated 2026)
{Cy5} = Cy5 fluorescent dye; d = 2'-deoxy (DNA); m = 2'-O-methyl

Tested on: E. Coli ATCC 25922
Experiment: MIC and MBC of different treatments, Example 3
Format: cell-based
Protocol: Reference bacterial stains were purchased from ATCC. Clinical isolates of carbapenem-resistant bacteria were obtained from National Health Research Institutes (NHRI) and Tri-Service General Hospital (TSGH). MIC is defined as the lowest concentration of antibiotics required to inhibit the growth of bacteria. MBC is defined as the lowest concentration of antibiotics required to eradicate microorganisms. The MICs of CS and the CS NPs were determined using a broth microdilution method. Bacterial suspensions were adjusted to a turbidity of McFarland 0.5±0.05 and cultured overnight with different concentrations of CS or CS NPs. A control group without antimicrobial treatment was prepared as a reference. Following overnight incubation, solution turbidity was determined by visual inspection. Culture wells with no observable turbidity were further sub-cultured for MBC evaluation. Solutions from the clear wells were deposited onto an agar plate and cultured overnight to determine the MBCs.

Substance: ASOftsZ: antisense oligonucleotide of ftsZ DNA fragment; Cy5-mCmCmAmU-TG-GTT-CAA-A-mCmAmUmA, m_: 2′ O-methyl bases (antisense CCAUTGGTTCAAACAUA; sugars from the 5' end m4 d9 m4, 5' {Cy5}, backbone and methylation of C not given here)
- MBC: >2 mg/L
- MIC: >2 mg/L
